In patent US9776962B2, “Aromatic compounds with GPR40 agonistic activity” (TAKEDA PHARMACEUTICAL COMPANY LIMITED, priority 2013, dated 2017):

Each compound was assayed against T1, human GPR40 (Homo sapiens, UniProt O14842) (assay: Evaluation of human GPR40 agonist activity with increase in intracellular Ca2+ concentration as an index (FLIPR)). Conditions: test compound 1 μM; CHO(dhfr−) cells stably expressing human GPR40; 100% = 10 μM compound of Example 153, 0% = DMSO.
T1 construct: expressed in transfected cells
T1 sequence (O14842 whole entry): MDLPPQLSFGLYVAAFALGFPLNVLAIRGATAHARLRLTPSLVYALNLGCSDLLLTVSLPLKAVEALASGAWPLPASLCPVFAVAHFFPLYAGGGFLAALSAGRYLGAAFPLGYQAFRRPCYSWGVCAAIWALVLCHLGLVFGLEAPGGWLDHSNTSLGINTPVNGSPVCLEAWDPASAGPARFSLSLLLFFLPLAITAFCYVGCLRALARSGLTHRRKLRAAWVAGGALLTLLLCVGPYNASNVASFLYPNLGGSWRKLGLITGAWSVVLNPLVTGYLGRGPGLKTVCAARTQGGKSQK
Type: cell-based
Protocol: Plasmid hGPR40/pAKKO-1.11H for mammalian cells expression, wherein cDNA fragment (SEQ ID NO: 1) encoding the full-length human GPR40 was incorporated into an expression vector pAKKO-1.11H (Biochimica et Biophysica Acta vol. 1219 pp. 251-259 (1994)), was transfected into CHO-dhfr(−) cells (ATCC, CRL-9096) by using Lipofectamine 2000 (Invitrogen:11668-019). After transfection, the limiting dilution-culture method was performed to select clone in selection medium (nucleic acid-free α-MEM (Invitrogen:12561-056)) containing 10% dialyzed bovine serum (Invitrogen:26400-044)). The expression level of human GPR40 mRNA was confirmed by TaqMan PCR (Life Technologies), and the intracellular calcium mobilization activity of GPR40 ligand (γ-linolenic acid) was confirmed by FLIPR (Molecular Devices), and a clone of human GPR40 expressing CHO cells was selected.
Evaluation of Human GPR40 Agonist Activity with Increase in Intracellular Ca^2+ Concentration as an Index
CHO(dhfr−) cells that stably expressed human GPR40 were suspended in MEMα (Nikken Bio Medical Laboratory) containing 10% dialyzed bovine serum (JR Scientific), 10 mM HEPES (Life Technologies), 100 U/mL penicillin, 100 μg/mL streptomycin (Life Technologies), and plated on a 384 well black/clear cell culture plate at 10,000 cells/well. After culture overnight in a CO2 incubator at 37° C., the culture supernatant was removed, and loading buffer [Ca^2+ probe attached to Calcium Kit II-iCellux (DOJINDO) was dissolved in assay buffer (20 mM HEPES, 0.1% fatty acid-free BSA (Sigma-Aldrich), 2.5 mM probenecid (DOJINDO)-containing HESS (Life Technologies))] was added at 30 μL/well. After leaving for 1 hr at room temperature under light shielding, assay buffer containing the test compound at a final concentration of 1 μM was added at 10 μL/well in FLIPR Tetra (Molecular Devices), and the fluorescence amount was successively measured. Human GPR40 agonist activity calculated using an increase in the intracellular Ca^2+ concentration as an index, wherein the activity of 10 μM of the compound of Example 153 was 100%, and the activity when DMSO was added instead of the test compound was 0%.
COc1ccc(C(=O)N(CC(F)(F)C(F)(F)F)c2nccc(C)n2)c(N2CCC(COc3cc(C(CC(=O)O)C4CC4)ccn3)CC2)c1 (stereo not shown) [Example 171, 3-cyclopropyl-3-(2-((1-(5-methoxy-2-((4-methylpyrimidin-2-yl)(2,2,3,3,3-pentafluoropropyl)carbamoyl)phenyl)piperidin-4-yl)methoxy)pyridin-4-yl)propanoic acid] was tested, and the activation at 1 µM was 106%. Cc1cccc(N(CC(C)(C)C)C(=O)c2ccc(O)cc2N2CCC(COc3cc(C(CC(=O)O)C4CC4)ccn3)CC2)n1 (stereo not shown) [Example 259, 3-cyclopropyl-3-(2-((1-(2-((2,2-dimethylpropyl)(6-methylpyridin-2-yl)carbamoyl)-5-hydroxyphenyl)piperidin-4-yl)methoxy)pyridin-4-yl)propanoic acid] gave an activation at 1 µM of 77%. Compound COc1ccc(C(=O)N(CC(F)(F)F)c2cc(C)ncn2)c(N2CCC(COc3cc(C(CC(=O)O)C4CC4)ccn3)CC2)c1 (stereo not shown) [Example 240, 3-cyclopropyl-3-(2-((1-(5-methoxy-2-((6-methylpyrimidin-4-yl)-(2,2,2-trifluoroethyl)-carbamoyl)phenyl)-piperidin-4-yl)methoxy)-pyridin-4-yl)propanoic acid] has an activation at 1 µM of 99%. COc1ccc(C(=O)N(CC2CC(F)(F)C2)c2ccccn2)c(N2CCC(COc3cc(C(CC(=O)O)C4CC4)ccn3)CC2)c1 (stereo not shown) [Example 162, 3-cyclopropyl-3-(2-((1-(2-(((3,3-difluorocyclobutyl)methyl)(pyridin-2-yl)carbamoyl)-5-methoxyphenyl)piperidin-4-yl)methoxy)pyridin-4-yl)propanoic acid] showed an activation at 1 µM of 99%. COc1ccc(C(=O)N(CC(F)(F)F)c2nccc(C)n2)c(N2CCC(COc3cc(C(CC(=O)O)C4CC4)ccn3)CC2)c1 (stereo not shown) [Example 169, 3-cyclopropyl-3-(2-((1-(5-methoxy-2-((4-methylpyrimidin-2-yl)(2,2,2-trifluoroethyl)carbamoyl)phenyl)piperidin-4-yl)methoxy)pyridin-4-yl)propanoic acid] showed an activation at 1 µM of 106%. Work on COc1ccc(C(=O)N(C)CC(C)C)c(N2CCC(COc3cccc(C(CC(=O)O)C4CC4)c3)CC2)c1 (stereo not shown) [Example 1, 3-cyclopropyl-3-(3-((1-(5-methoxy-2-(methyl(2-methylpropyl)carbamoyl)phenyl)piperidin-4-yl)methoxy)phenyl)propanoic acid] yielded an activation at 1 µM of 97%. In the case of COc1ccc(C(=O)N(CC(C)(C)C)c2cccc(C)n2)c(N2CCC(COc3cccc(C(CC(=O)O)OC)c3)CC2)c1 (stereo not shown) [Example 269, 3-(3-((1-(2-((2,2-dimethylpropyl)(6-methylpyridin-2-yl)carbamoyl)-5-methoxyphenyl)piperidin-4-yl)methoxy)phenyl)-3-methoxypropanoic acid], the activation at 1 µM is reported as 103%. Compound COc1cc(N2CCC(COc3cc(C(CC(=O)O)C4CC4)ccn3)CC2)c(C(=O)N(CC(C)(C)C)c2cccc(C)n2)cc1F (stereo not shown) [Example 250, 3-cyclopropyl-3-(2-((1-(2-((2,2-dimethylpropyl)(6-methylpyridin-2-yl)carbamoyl)-4-fluoro-5-methoxyphenyl)piperidin-4-yl)methoxy)pyridin-4-yl)propanoic acid] has an activation at 1 µM of 91%. COc1ccc(C(=O)N(CC(C)(C)C)c2cc(C)cnn2)c(N2CCC(COc3cc(C(CC(=O)O)C4CC4)ccn3)CC2)c1 (stereo not shown) [Example 232, 3-cyclopropyl-3-(2-((1-(2-((2,2-dimethylpropyl) (5-methylpyridazin-3-yl)carbamoyl)-5-methoxyphenyl)piperidin-4-yl)methoxy)pyridin-4-yl)propanoic acid] showed an activation at 1 µM of 85%. In the case of COc1ccc(C(=O)N(c2ccccn2)C2CCN(Cc3ccccc3)CC2)c(N2CCC(COc3cc(C(CC(=O)O)C4CC4)ccn3)CC2)c1 (stereo not shown) [Example 190, 3-(2-((1-(2-((1-benzylpiperidin-4-yl)(pyridin-2-yl)carbamoyl)-5-methoxyphenyl)piperidin-4-yl)methoxy)pyridin-4-yl)-3-cyclopropylpropanoic acid], the “Activity (human GPR40 agonist activity)” value is reported as 66%. For COc1ccc(C(=O)N(c2ccccn2)C(C)C)c(N2CCC(COc3cc(C(CC(=O)O)C4CC4)ccn3)CC2)c1 (stereo not shown) [Example 146, 3-cyclopropyl-3-(2-((1-(5-methoxy-2-(propan-2-yl(pyridin-2-yl)carbamoyl)phenyl)piperidin-4-yl)methoxy)pyridin-4-yl)propanoic acid], the activation at 1 µM was 82%. Compound COc1cc(N2CCC(COc3cc(C(CC(=O)O)C4CC4)ccn3)CC2)c(C(=O)N(CC(C)(C)C)c2cc(C)nc(C)n2)cn1 (stereo not shown) [Example 286, 3-cyclopropyl-3-(2-((1-(5-((2,2-dimethylpropyl) (2,6-dimethylpyrimidin-4-yl)carbamoyl)-2-methoxypyridin-4-yl)piperidin-4-yl)methoxy)pyridin-4-yl)propanoic acid] has an activation at 1 µM of 107%. Work on COc1ccc(C(=O)N(CC2(F)CCC2)c2ccccn2)c(N2CCC(COc3cc(C(CC(=O)O)C4CC4)ccn3)CC2)c1 (stereo not shown) [Example 154, 3-cyclopropyl-3-(2-((1-(2-(((1-fluorocyclobutyl)methyl)(pyridin-2-yl)carbamoyl)-5-methoxyphenyl)piperidin-4-yl)methoxy)pyridin-4-yl)propanoic acid] yielded an activation at 1 µM of 100%. COc1ccc(C(=O)N(CC(C)(C)C)c2cccc(C)n2)c(N2CCC(C(C)Oc3cc(C(CC(=O)O)C4CC4)ccn3)CC2)c1 (stereo not shown) [Example 268, 3-cyclopropyl-3-(2-(1-(1-(2-((2,2-dimethylpropyl)(6-methylpyridin-2-yl)carbamoyl)-5-methoxyphenyl)piperidin-4-yl)ethoxy)pyridin-4-yl)propanoic acid] gave an activation at 1 µM of 92%. In the case of Cc1cccc(N(CC(C)(C)C)C(=O)c2ccc(S(C)(=O)=O)cc2N2CCC(COc3cc(C(CC(=O)O)C4CC4)ccn3)CC2)n1 (stereo not shown) [Example 264, 3-cyclopropyl-3-(2-((1-(2-((2,2-dimethylpropyl)(6-methylpyridin-2-yl)carbamoyl)-5-(methylsulfonyl)phenyl)piperidin-4-yl)methoxy)pyridin-4-yl)propanoic acid], the activation at 1 µM is reported as 52%. Work on COc1ccc(C(=O)N(CC(C)(C)C)c2ccccn2)c(N2CC[C@@H](COc3cccc(C(CC(=O)O)C4CC4)c3)[C@@H](C)C2)c1 (stereo partly drawn) [Example 280, (3S)-cyclopropyl-3-(3-(((3R,4R)-1-(2-((2,2-dimethylpropyl) (pyridin-2-yl)carbamoyl)-5-methoxyphenyl)-3-methylpiperidin-4-yl)methoxy)phenyl)-propanoic acid] yielded an activation at 1 µM of 6%. Work on COc1ccc(C(=O)N(CC(F)(F)C(F)F)c2ccccn2)c(N2CCC(COc3cc(C(CC(=O)O)C4CC4)ccn3)CC2)c1 (stereo not shown) [Example 138, 3-cyclopropyl-3-(2-((1-(5-methoxy-2-(pyridin-2-yl(2,2,3,3-tetrafluoropropyl)carbamoyl)phenyl)piperidin-4-yl)methoxy)pyridin-4-yl)propanoic acid] yielded an activation at 1 µM of 102%. With COc1ccc(C(=O)N(CC(C)(C)C)c2cc(C)ccn2)c(N2CCC(COc3cc(C(CC(=O)O)C4CC4)ccn3)CC2)c1 (stereo not shown) [Example 112, 3-cyclopropyl-3-(2-((1-(2-((2,2-dimethylpropyl)(4-methylpyridin-2-yl)carbamoyl)-5-methoxyphenyl)piperidin-4-yl)methoxy)pyridin-4-yl)propanoic acid] the activation at 1 µM was 98%. Work on COc1ccc(C(=O)N(CC(C)C)c2ccccn2)c(N2CCC(COc3cc(C(CC(=O)O)C4CC4)ccn3)CC2)c1 (stereo not shown) [Example 113, 3-cyclopropyl-3-(2-((1-(5-methoxy-2-((2-methylpropyl)(pyridin-2-yl)carbamoyl)phenyl)piperidin-4-yl)methoxy)pyridin-4-yl)propanoic acid] yielded an activation at 1 µM of 102%. With COc1ccc(C(=O)N2CCOc3ccccc32)c(N2CCC(COc3cc(C(CC(=O)O)C4CC4)ccn3)CC2)c1 (stereo not shown) [Example 199, 3-cyclopropyl-3-(2-((1-(2-(2,3-dihydro-4H-1,4-benzoxazin-4-ylcarbonyl)-5-methoxyphenyl)piperidin-4-yl)methoxy)pyridin-4-yl)propanoic acid] the activation at 1 µM was 93%. COc1ccc(C(=O)N(CC(F)(F)F)c2cccc(C)n2)c(N2CCC(COc3cc(C(CC(=O)O)C4CC4)ccn3)CC2)c1 (stereo not shown) [Example 143, 3-cyclopropyl-3-(2-((1-(5-methoxy-2-((6-methylpyridin-2-yl)(2,2,2-trifluoroethyl)carbamoyl)phenyl)piperidin-4-yl)methoxy)pyridin-4-yl)propanoic acid] was tested, and the activation at 1 µM was 102%. For COc1ccc(C(=O)N(CC(C)C)c2ccc(OC)nc2)c(N2CCC(COc3cc(C(CC(=O)O)C4CC4)ccn3)CC2)c1 (stereo not shown) [Example 140, 3-cyclopropyl-3-(2-((1-(5-methoxy-2-((6-methoxypyridin-3-yl)(2-methylpropyl)carbamoyl)phenyl)piperidin-4-yl)methoxy)pyridin-4-yl)propanoic acid], the activation at 1 µM was 93%.
